Assay results reported in patent US5639715A, “Aqueous based drilling fluid additive and composition” (M-I Drilling Fluids LLC, priority 1994, dated 1997).

What was measured:
Format in all cases: physicochemical
[1] = coefficient of friction on sandstone, Lubricity Evaluation Monitor (LEM) (Table 5); details: 1/2% in 22.5 ppb bentonite slurry
Experimental: The following experiment shower the lubricity properties of surfactants of this invention in 22.5 ppb bentonite slurry in water. The coefficient of friction on sandstone was determined using a Lubricity Evaluation Monitor (LEM) designed by M-I Drilling Fluids Company.

[2] = surface tension measurement at various concentrations and temperatures
Experimental: The surface tension measurement were carried out on Monawet SNO-35 and coco diethanolamide (CDA) at various concentrations and various temperatures. The following results establish that the higher surface tension values of the products of this invention when compared to the prior art, coco diethanolamide (CDA), would have lower foaming in drilling fluid applications.

[3] = lubricity coefficient, Baroid lubricity meter (Table 4); details: 1% solution in deionized water
Experimental: A 1% solution of surfactant as in deionized water was tested on a Baroid lubricity meter (Model No. 21200-EP/Lubricity Tester). The lubricity coefficient of the samples were calculated and recorded in Table 4. Deionized water was used as base.

Coefficient of Friction [1]: 0.168
Surface Tension ([2]; 0.1% in DI water, 24 °C): 51 dynes per centimeter
Surface Tension ([2]; 0.1% in DI water, 38 °C): 47 dynes per centimeter
Surface Tension ([2]; 0.1% in DI water, 43 °C): 45 dynes per centimeter
Surface Tension ([2]; 0.1% in DI water, 50 °C): 44 dynes per centimeter
Surface Tension ([2]; 1.0% in DI water, 24 °C): 49 dynes per centimeter
Surface Tension ([2]; 1.0% in DI water, 36 °C): 42 dynes per centimeter
Surface Tension ([2]; 1.0% in DI water, 45 °C): 38 dynes per centimeter
Surface Tension ([2]; 1.0% in DI water, 50 °C): 37 dynes per centimeter
Surface Tension ([2]; 2.0% in DI water, 24 °C): 46 dynes per centimeter
Surface Tension ([2]; 2.0% in DI water, 38 °C): 41 dynes per centimeter
Surface Tension ([2]; 2.0% in DI water, 44 °C): 39 dynes per centimeter
Surface Tension ([2]; 2.0% in DI water, 49 °C): 37 dynes per centimeter
Lubricity coefficient [3]: .095
Compound: CCCCCCCCCCCCCCCCCCN(C(=O)CC(C(=O)O)S(=O)(=O)O)C(CC(=O)O)C(=O)O (stereo not shown) [Monawet SNO-35, tetrasodium N-(1,2-dicarboxyethyl) N-alkyl (C18) sulfosuccinamate]
% Reduction (coefficient of friction) [1]: 73.9%
% Reduction (lubricity coefficient) ([3]; versus DI water): 72%
